Assay results from ChEMBL document CHEMBL6103619, “Discovery of a Novel CRBN-Recruiting cGAS PROTAC Degrader for the Treatment of Ulcerative Colitis” (J Med Chem, 2025).
Active and inactive are the calls of the source. The rule behind the calls is not given here.

Assays:
[1] = AUC (0 to 24 hrs) in male C57BL/6 mouse at 1 mg/kg, iv measured after 24 hrs by LC-MS/MS analysis; format: ADME, organism-based; details: in vivo
THP-1 [2] = test: Inhibition of ds-DNA induced cGAS-STING signaling pathway in human THP-1 cells assessed as reduction in IRF3 phosphorylation preincubated with compound for 40 hrs followed by HT-DNA addition and measured after 8 hrs by Western blot analysis; format: cell-based; details: dose 0.7-20 µM, time 48.0 hrs
Mus musculus [3] = test: (§1) Anti-inflammatory activity in DSS-induced ulcerative colitis C57BL/6 mouse model assessed as increase in colon length at 20 to 50 mg/kg/day, ip preadministered with DSS for 7 days followed by replacement with ultrapure water for 3 days with subsequent compound administration starting from day 4 to 10 and measured on day 11; format: functional, organism-based; details: dose 20-50 mg/kg/day, time 8.0 day
[4] = AUC (0 to 24 hrs) in male C57BL/6 mouse at 20 mg/kg, ip measured after 24 hrs by LC-MS/MS analysis; format: ADME, organism-based; details: in vivo
RAW264.7 [5] = test: Inhibition of ds-DNA induced cGAS-STING signaling pathway in mouse RAW264.7 cells assessed as reduction in IRF3 phosphorylation preincubated with compound for 40 hrs followed by HT-DNA addition and measured after 8 hrs by Western blot analysis; format: cell-based; details: dose 0.7-20 µM, time 48.0 hrs
Mus musculus [6] = test: as §1, with “improvement” for “increase”, “pathology” for “length”, “11 by H and E staining based analysis” for “11”; format: functional, organism-based; details: dose 20-50 mg/kg/day, time 8.0 day
THP-1 [7] = test: Inhibition of ds-DNA induced cGAS-STING signaling pathway in human THP-1 cells assessed as reduction in STING phosphorylation preincubated with compound for 40 hrs followed by HT-DNA addition and measured after 8 hrs by Western blot analysis; format: cell-based; details: dose 0.7-20 µM, time 48.0 hrs
RAW264.7 [8] = test: Downregulation of CXCL10 mRNA expression in mouse RAW264.7 cells preincubated with compound for 40 hrs followed by HT-DNA addition and measured after 8 hrs by qRT-PCR analysis; format: functional, cell-based; details: dose 2.5-20 µM, time 48.0 hrs
RAW264.7 [9] = test: Cytotoxicity against mouse RAW264.7 cells assessed as reduction in cell viability upto 60 uM incubated for 48 hrs by CCK8 assay; format: toxicity, cell-based; details: raw264.7, 48 h
[10] = MRT (0 to 24 hrs) in male C57BL/6 mouse at 20 mg/kg, ip measured after 24 hrs by LC-MS/MS analysis; format: ADME, organism-based; details: in vivo
[11] = Cmax in male C57BL/6 mouse at 1 mg/kg, iv measured after 24 hrs by LC-MS/MS analysis; format: ADME, organism-based; details: in vivo
[12] = Half-life in male C57BL/6 mouse at 1 mg/kg, iv measured after 24 hrs by LC-MS/MS analysis; format: ADME, organism-based; details: in vivo
THP-1 [13] = test: Downregulation of IFNB mRNA expression level in poly(I:C)-induced human THP-1 cells at 20 uM preincubated with compound for 12 hrs followed by poly(I:C) addition and measured after 8 hrs by RT-qPCR analysis; format: functional, cell-based; details: time 20.0 hrs
[14] = Cytotoxicity against mouse RAW-Lucia ISG cells assessed as reduction in cell viability at >30 uM incubated for 48 hrs by CCK8 assay; format: toxicity, cell-based
RAW264.7 [15] = test: Cytotoxicity against mouse RAW264.7 cells assessed as reduction in cell viability at >30 uM incubated for 48 hrs by CCK8 assay; format: toxicity, cell-based; details: raw264.7, 48 h
RAW264.7 [16] = test: Downregulation of IFNB mRNA expression in mouse RAW264.7 cells preincubated with compound for 40 hrs followed by HT-DNA addition and measured after 8 hrs by qRT-PCR analysis; format: functional, cell-based; details: dose 2.5-20 µM, time 48.0 hrs
Mus musculus [17] = test: as §1, with “reduction in TNF-alpha secretion” for “increase”, “colon” for “colon length”, “11 by ELISA” for “11”; format: functional, organism-based; details: dose 20-50 mg/kg/day, time 8.0 day
Mus musculus [18] = test: as §1, with “reduction in IL-6 secretion” for “increase”, “colon” for “colon length”, “11 by ELISA” for “11”; format: functional, organism-based; details: dose 20-50 mg/kg/day, time 8.0 day
[19] = target: Protein cereblon/Cyclic GMP-AMP synthase (Mus musculus) (UniProt Q8C6L5+Q8C7D2); test: PROTAC activity at CRBN/cGAS in mouse RAW264.7 cells assessed as induction of cGAS degradation by measuring maximal efficacy at 20 uM preincubated with compound for 40 hrs followed by HT-DNA stimulation and measured after 8 hrs by Western blot analysis relative to control; format: cell-based; details: time 48.0 hrs
Chain of Protein cereblon/Cyclic GMP-AMP synthase (Mus musculus) (Q8C6L5 whole entry, looked up): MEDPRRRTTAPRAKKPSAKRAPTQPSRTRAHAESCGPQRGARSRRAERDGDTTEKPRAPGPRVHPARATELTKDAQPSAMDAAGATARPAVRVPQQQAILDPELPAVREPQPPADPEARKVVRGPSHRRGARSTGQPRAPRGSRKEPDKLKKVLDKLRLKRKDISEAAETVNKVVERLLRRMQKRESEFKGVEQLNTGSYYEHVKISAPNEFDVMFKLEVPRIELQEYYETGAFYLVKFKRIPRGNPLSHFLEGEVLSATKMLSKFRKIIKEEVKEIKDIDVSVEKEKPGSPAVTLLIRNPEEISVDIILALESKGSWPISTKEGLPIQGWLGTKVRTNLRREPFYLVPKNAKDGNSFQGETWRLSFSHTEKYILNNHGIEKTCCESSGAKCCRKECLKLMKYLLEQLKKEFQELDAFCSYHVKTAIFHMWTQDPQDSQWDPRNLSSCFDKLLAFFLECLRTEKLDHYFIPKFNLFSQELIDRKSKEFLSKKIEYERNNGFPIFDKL
Chain of Protein cereblon/Cyclic GMP-AMP synthase (Mus musculus) (Q8C7D2 whole entry, looked up): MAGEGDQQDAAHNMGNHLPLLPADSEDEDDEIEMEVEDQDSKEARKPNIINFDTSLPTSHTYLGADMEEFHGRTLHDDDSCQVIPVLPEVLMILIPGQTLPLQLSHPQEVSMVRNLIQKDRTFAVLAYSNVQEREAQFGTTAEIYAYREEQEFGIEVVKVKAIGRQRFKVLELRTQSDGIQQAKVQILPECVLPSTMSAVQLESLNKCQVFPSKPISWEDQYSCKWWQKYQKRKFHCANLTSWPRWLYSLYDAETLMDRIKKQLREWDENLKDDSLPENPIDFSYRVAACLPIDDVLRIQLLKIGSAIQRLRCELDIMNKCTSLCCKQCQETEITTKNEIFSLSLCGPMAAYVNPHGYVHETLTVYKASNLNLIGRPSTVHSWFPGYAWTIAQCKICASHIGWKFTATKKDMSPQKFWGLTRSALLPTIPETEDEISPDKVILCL

[20] = Cytotoxicity against human THP1-Lucia ISG cells assessed as reduction in cell viability at >30 uM incubated for 48 hrs by CCK8 assay; format: toxicity, cell-based
[21] = target: T1, Protein cereblon/Cyclic GMP-AMP synthase (Homo sapiens, UniProt Q96SW2+Q8N884); test: (§2) PROTAC activity at CRBN/cGAS in human THP-1 cells assessed as induction of cGAS degradation at 10 uM preincubated with MG132 for 2 hrs followed by compound addition and measured after 48 hrs by Western blot analysis; format: cell-based
Target sequence in this assay (Q8N884 whole entry, looked up): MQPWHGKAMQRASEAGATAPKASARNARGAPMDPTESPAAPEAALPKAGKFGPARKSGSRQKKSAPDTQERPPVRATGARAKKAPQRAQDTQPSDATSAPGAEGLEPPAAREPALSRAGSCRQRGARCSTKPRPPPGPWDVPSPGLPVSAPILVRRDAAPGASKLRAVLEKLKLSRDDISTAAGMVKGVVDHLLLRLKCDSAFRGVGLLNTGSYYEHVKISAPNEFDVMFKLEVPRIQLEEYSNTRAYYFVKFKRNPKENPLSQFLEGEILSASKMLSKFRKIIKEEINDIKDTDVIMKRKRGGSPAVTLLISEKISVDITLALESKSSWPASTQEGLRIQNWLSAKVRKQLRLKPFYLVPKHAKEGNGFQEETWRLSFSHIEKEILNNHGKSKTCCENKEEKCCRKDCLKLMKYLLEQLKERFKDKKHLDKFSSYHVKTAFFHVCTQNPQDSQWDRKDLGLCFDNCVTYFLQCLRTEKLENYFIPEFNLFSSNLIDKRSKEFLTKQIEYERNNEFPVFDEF
Target sequence in this assay (Q96SW2 whole entry, looked up): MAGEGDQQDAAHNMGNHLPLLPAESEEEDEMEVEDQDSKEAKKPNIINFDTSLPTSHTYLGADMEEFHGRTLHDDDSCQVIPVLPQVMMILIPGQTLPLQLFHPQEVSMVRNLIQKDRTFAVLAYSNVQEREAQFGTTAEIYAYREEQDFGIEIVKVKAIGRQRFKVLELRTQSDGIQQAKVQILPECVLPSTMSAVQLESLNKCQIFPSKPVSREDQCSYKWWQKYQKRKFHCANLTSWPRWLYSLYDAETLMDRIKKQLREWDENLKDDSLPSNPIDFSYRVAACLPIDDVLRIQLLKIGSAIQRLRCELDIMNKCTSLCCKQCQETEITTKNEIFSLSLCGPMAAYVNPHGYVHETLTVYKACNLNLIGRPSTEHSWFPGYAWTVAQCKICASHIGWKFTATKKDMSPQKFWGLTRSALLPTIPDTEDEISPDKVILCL

THP-1 [22] = test: Downregulation of IFNB mRNA expression level in HSV-1-induced human THP-1 cells at 20 uM preincubated with compound for 12 hrs followed by HSV1 addition and measured after 8 hrs by RT-qPCR analysis; format: functional, cell-based; details: time 20.0 hrs
[23] = Half-life in male C57BL/6 mouse at 20 mg/kg, ip measured after 24 hrs by LC-MS/MS analysis; format: ADME, organism-based; details: in vivo
Mus musculus [24] = test: as §1, with “reduction in IFNB mRNA level” for “increase”, “colon” for “colon length”, “11 by qRT-PCR analysis” for “11”; format: functional, organism-based; details: dose 20-50 mg/kg/day, time 8.0 day
[25] = AUC (0 to infinity) in male C57BL/6 mouse at 1 mg/kg, iv measured after 24 hrs by LC-MS/MS analysis; format: ADME, organism-based; details: in vivo
[26] = target: T1, Protein cereblon/Cyclic GMP-AMP synthase; test: PROTAC activity at CRBN/cGAS in human THP-1 cells assessed as induction of cGAS degradation preincubated with compound for 40 hrs followed by HT-DNA stimulation and measured after 8 hrs by Western blot analysis; format: cell-based
[27] = Downregulation of cGAS protein level in human THP-1 cells at 10 uM incubated for 48 hrs by MS-based LFQ whole proteome analysis relative to control; format: functional
[28] = target: T1, Protein cereblon/Cyclic GMP-AMP synthase; test: PROTAC activity at CRBN/cGAS in human THP-1 cells assessed as induction of cGAS degradation at 10 uM preincubated with compound for 40 hrs followed by HT-DNA stimulation and measured after 8 hrs by Western blot analysis relative to control; format: cell-based; details: time 48.0 hrs
Target sequence in this assay (Q8N884 whole entry, looked up): as the sequence (Q8N884 whole entry, looked up) above
Target sequence in this assay (Q96SW2 whole entry, looked up): as the sequence (Q96SW2 whole entry, looked up) above

[29] = target: T1, Protein cereblon/Cyclic GMP-AMP synthase; test: as §2, with “1-(6,7-dichloro-9-(1-methyl-1H-pyrazol-3-yl)-1,3,4,5-tetrahydro-2H-pyrido[4,3-b]indol-2-yl)-2-hydroxyethan-1-one” for “MG132”; format: cell-based
Target sequence in this assay (Q8N884 whole entry, looked up): as the sequence (Q8N884 whole entry, looked up) above
Target sequence in this assay (Q96SW2 whole entry, looked up): as the sequence (Q96SW2 whole entry, looked up) above

Mus musculus [30] = test: as §1, with “reduction in mucosal NET formation by measuring reduction in citH3 level” for “increase”, “colon” for “colon length”, “11 by immunofluorescence imaging analysis” for “11”; format: functional, organism-based; details: dose 20-50 mg/kg/day, time 8.0 day
Mus musculus [31] = test: Anti-inflammatory activity in DSS-induced ulcerative colitis C57BL/6 mouse model assessed as reduction in histopathological score of colon at 20 to 50 mg/kg/day, ip preadministered with DSS for 7 days followed by replacement with ultrapure water for 3 days with subsequent compound administration starting from day 4 to 10 and measured on day 11; format: functional, organism-based; details: dose 20-50 mg/kg/day, time 8.0 day

AUC(0-t) at 24 h [1]: 530 ng·h/mL
AUC(0-t) at 24 h [4]: 2020 ng·h/mL
MRT last at 24 h [10]: 7.9 h
Cmax [11]: 1610 ng/mL
half-life [12]: 3 h
Emax [19]: 91.6%
Activity [21]: inactive
half-life [23]: 13.7 h
AUC(0-inf) [25]: 531 ng·h/mL
DC50 [26]: 0.9 µM
Activity ([26]; time 48.0 hrs): Dose-dependent-effect
Activity [28]: 78.9%
Activity [29]: inactive
SMILES: Cn1ccc(-c2cc(Cl)c(Cl)c3[nH]c4c(c23)CN(C(=O)CNC(=O)CCCC#Cc2cccc3c2CN(C2CCC(=O)NC2=O)C3=O)CC4)n1 (configuration not stated)
inhibition (THP-1 [2]): Dose-dependent-effect
Activity (Mus musculus [3]): Active
inhibition (RAW264.7 [5]): Dose-dependent-effect
Activity (Mus musculus [6]): Active
inhibition (THP-1 [7]): Dose-dependent-effect
Activity (RAW264.7 [8]): Dose-dependent-effect
Activity (RAW264.7 [9]): Non-toxic
Activity (THP-1 [13]): inactive
Activity [14]: Toxic
Activity (RAW264.7 [15]): Toxic
Activity (RAW264.7 [16]): Dose-dependent-effect
Activity (Mus musculus [17]): Active
Activity (Mus musculus [18]): Active
Activity [20]: Toxic
Activity (THP-1 [22]): Active
Activity (Mus musculus [24]): Active
Activity [27]: >80%
Activity (Mus musculus [30]): Active
Activity (Mus musculus [31]): Active
